Experimental data from PMC6008492, “Structure activity relationship studies on rhodanines and derived enethiol inhibitors of metallo-β-lactamases” (Bioorganic & Medicinal Chemistry, 2018).

Experiments:
[1] = target: T1, VIM-2 (Escherichia coli, UniProt Q5U7L7); assay: biochemical; settings: enethiols 6 assayed as sodium salts; 10 min incubation; read-out: IC50 VIM-2 (converted)
T1 construct: made in house
Experimental: (§1) Inhibition analyses against bacterial MBLs and SBLs were performed as described previously.[22], [24], [26] Residual enzyme activities were determined for a range of inhibitor concentrations. Non-linear regression fitting of IC50 curves was carried out using a three-parameter dose–response curve in GraphPad Prism. Errors in IC50 values are expressed as: σ(logIC50)/logIC50×IC50
We first screened the inhibitors against a representative set of presently clinically important and other MBLs[22], comprising both Class B1 enzymes (NDM-1, New Delhi MBL-1; VIM-2, Verona integron–encoded MBL-2; BcII, Bacillus cereus II MBL; SPM-1, São Paulo MBL-1; IMP-1, imipenemase MBL-1) and the Class B2 MBL CphA (carbapenem hydrolysing MBL from Aeromonas hydrophila).[22] The latter MBL (CphA) only utilises one active site Zn(II) ion in catalysis, whilst the others normally use two Zn(II) ions. We also screened the inhibitors against a representative panel of SBLs from different classes (TEM-1, Temoneira β-lactamase-1, class A; CTX-M-15, cefotaxime hydrolysing β-lactamase from Munich 15, class A, extended spectrum β-lactamase (ESBL); AmpC E. coli, class C, and OXA-10, oxacillinase-10, class D).
Figure S6: IC50 curves for VIM-2 inhibition time courses. Residual activities were calculated from the
(§2) initial rate of FC5 hydrolysis after incubation of the enzyme with the inhibitor for 10 minutes. […]

[2] = target: SPM-1 (Pseudomonas aeruginosa, UniProt Q8G9Q0); assay: SPM-1 inhibition, fluorogenic cephalosporin (FC5) hydrolysis; assay type: biochemical; settings: enethiols 6 assayed as sodium salts; 10 min incubation; read-out: IC50 SPM-1 (converted)
SPM-1, sequence (Q8G9Q0 entry or part of it): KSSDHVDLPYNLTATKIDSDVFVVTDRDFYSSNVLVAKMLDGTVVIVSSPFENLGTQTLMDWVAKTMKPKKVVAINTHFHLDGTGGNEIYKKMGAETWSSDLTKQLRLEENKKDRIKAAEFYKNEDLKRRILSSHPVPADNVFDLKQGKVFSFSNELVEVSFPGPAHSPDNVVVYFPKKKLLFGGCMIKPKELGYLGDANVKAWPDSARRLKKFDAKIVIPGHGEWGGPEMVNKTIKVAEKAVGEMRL
Experimental: as §1
(§3) We first screened the inhibitors against a representative set of presently clinically important and other MBLs[22], comprising both Class B1 enzymes (NDM-1, New Delhi MBL-1; VIM-2, Verona integron–encoded MBL-2; BcII, Bacillus cereus II MBL; SPM-1, São Paulo MBL-1; IMP-1, imipenemase MBL-1) and the Class B2 MBL CphA (carbapenem hydrolysing MBL from Aeromonas hydrophila).[22] The latter MBL (CphA) only utilises one active site Zn(II) ion in catalysis, whilst the others normally use two Zn(II) ions.
Figure S5: IC50 curves for SPM-1 inhibition time courses. Residual activities were calculated from the
as §2

[3] = target: T2, BcII (Bacillus cereus, UniProt P04190); assay: biochemical; settings: enethiols 6 assayed as sodium salts; 10 min incubation; read-out: IC50 BcII (converted)
T2 construct: made in house
T2 sequence (P04190 31-257): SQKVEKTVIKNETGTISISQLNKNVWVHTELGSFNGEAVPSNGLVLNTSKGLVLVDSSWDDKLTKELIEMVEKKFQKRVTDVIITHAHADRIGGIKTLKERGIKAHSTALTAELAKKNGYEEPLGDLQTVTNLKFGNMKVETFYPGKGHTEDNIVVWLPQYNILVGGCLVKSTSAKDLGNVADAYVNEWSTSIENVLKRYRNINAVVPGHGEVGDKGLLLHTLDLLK
Experimental: as §1, §3
Figure S2: IC50 curves for BcII inhibition time courses. Residual activities were calculated from the initial
rate of FC5 hydrolysis after incubation of the enzyme with the inhibitor for 10 minutes. […]

[4] = 1H NMR time course stability (hydrolysis) test; assay type: physicochemical; settings: 200 µM, pH 7.5, presence or absence of NDM-1, timescale of the inhibition studies
Experimental: NMR experiments were carried out using a Bruker Avance III 700 MHz machine equipped with a TCI inverse cryoprobe or a Bruker Avance III HD 600 MHz spectrometer equipped with a Prodigy cryoprobe at 298 K. Data were analysed using Bruker Topspin 3.5. Processing of spectra was done with a Lorentzian line broadening of 0.3 Hz. Chemical shifts (δ) are given as parts per million (ppm) relative to residual HDO (δH 4.70 ppm for ^1H NMR).
For rhodanine stability studies solutions were buffered in either freshly prepared NH4HCO3 (50 mM, pH 7.50) or Tris-d11 (50 mM, pH 7.50) both with NaCl (100 mM) in D2O. ML302 stock solution (50 mM in DMSO‑d6) was added to a sample to give a final concentration of 200 µM. When specified, NDM-1 was added to give a final concentration of 1 µM. The reaction was followed at 1 h intervals over 18 h (Figs. S7 and S8).
Figure S7. […] A, 10 (200 µM) in NH4HCO3 (50 mM, pH
7.5 in D2O) in the absence of NDM-1, 1H NMR time course over 18 hours; B, 10 (200 µM) in NH4HCO3 (50 mM, pH 7.5 in D2O) in the presence of NDM-1 (1 µM), 1H NMR time course over 18 hours; C, 10 (200 µM) in Tris-d11 (50 mM, pH 7.5 in D2O) in the absence of NDM-1, 1H NMR time course over 18 hours; D, 10 (200 µM) in Tris-d11 (50 mM, pH 7.5 in D2O) and in the presence of NDM-1 (1 µM), 1H NMR time course over 18 hours. […]

[5] = target: T3, NDM-1 (Klebsiella pneumoniae, UniProt C7C422); assay: NDM-1 inhibition, fluorogenic cephalosporin (FC5) hydrolysis; assay type: biochemical; settings: enethiols 6 assayed as sodium salts; 10 min incubation; read-out: IC50 NDM-1
T3 construct: made in house
T3 sequence (C7C422 29-270, looked up, species assumed): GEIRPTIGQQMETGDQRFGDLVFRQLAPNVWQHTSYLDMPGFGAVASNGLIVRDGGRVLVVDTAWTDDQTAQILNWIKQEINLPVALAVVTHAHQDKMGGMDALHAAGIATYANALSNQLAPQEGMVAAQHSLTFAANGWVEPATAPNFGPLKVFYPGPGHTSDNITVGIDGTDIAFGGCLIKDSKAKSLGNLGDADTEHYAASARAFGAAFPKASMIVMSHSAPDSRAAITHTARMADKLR
Experimental: as §1, §3
Figure S4: IC50 curves for NDM-1 inhibition time courses. Residual activities were calculated from the
as §2

CN1CCN(NC(=O)CN2C(=O)S/C(=C\c3c(Cl)ccc(Cl)c3Cl)C2=O)CC1 [Compound 10]
IC50 [1]: 200 ± 20 nM
IC50 [2]: 500 ± 40 nM
IC50 [3]: 600 ± 50 nM
hydrolysis by 1H NMR (700 MHz) [4]: did not observe hydrolysis
IC50 [5]: > 50000 nM
